Consider 2 compounds from ChEMBL document CHEMBL5523769, “Discovery of Novel Nonpeptidic and Noncovalent Small Molecule 3CLpro Inhibitors as anti-SARS-CoV-2 Drug Candidate” (J Med Chem, 2024).

The target in series [1] is Replicase polyprotein 1ab (Severe acute respiratory syndrome coronavirus 2) (UniProt P0DTD1). As to conditions: dose 31.25-1000 nM, time 100.0 sec.
A short description of series [2]: Cytotoxicity against African green monkey Vero E6 cells incubated for 24 hrs by CCK8 assay. In kind it is toxicity, cell-based, Vero C1008. Conditions: chlorocebus sabaeus.
Series [3] deals with T1, Replicase polyprotein 1ab (Severe acute respiratory syndrome coronavirus 2, UniProt P0DTD1).
Series [4] concerns the target T1, Replicase polyprotein 1ab. The source holds these as a separate data set.
The target of series [5] is T1, Replicase polyprotein 1ab. This is another data set of the same source.
In another series the target is Procathepsin L (Homo sapiens, UniProt P07711). Description: Inhibition of human Cathepsin L using Z-Phe-Arg-AMC as substrate incubated for 10 mins by FRET-enzymatic assay.
A short description of series [6]: Tmax in ICR mouse at 20 mg/kg, po. Format: ADME, organism-based. Conditions: in vivo.
Series [7] is described as follows: Inhibition of Bat coronavirus HKU9 3CLpro by FRET-enzymatic assay. Details: species or system Rousettus bat coronavirus HKU9.
The nature of series [8]: Acute toxicity in mouse assessed as animal death at 500 mg/kg, po administered twice a day for 5 days. In kind it is organism-based. As to conditions: in vivo, 120 h, time 5 day.
Series [9] is described as follows: Inhibition of porcine delta coronavirus 3CLpro by FRET-enzymatic assay. The arrangement: species or system Porcine deltacoronavirus.
The target of series [10] is T2, Calpain-1 catalytic subunit (Homo sapiens, UniProt P07384).
T2 sequence (P07384 whole entry): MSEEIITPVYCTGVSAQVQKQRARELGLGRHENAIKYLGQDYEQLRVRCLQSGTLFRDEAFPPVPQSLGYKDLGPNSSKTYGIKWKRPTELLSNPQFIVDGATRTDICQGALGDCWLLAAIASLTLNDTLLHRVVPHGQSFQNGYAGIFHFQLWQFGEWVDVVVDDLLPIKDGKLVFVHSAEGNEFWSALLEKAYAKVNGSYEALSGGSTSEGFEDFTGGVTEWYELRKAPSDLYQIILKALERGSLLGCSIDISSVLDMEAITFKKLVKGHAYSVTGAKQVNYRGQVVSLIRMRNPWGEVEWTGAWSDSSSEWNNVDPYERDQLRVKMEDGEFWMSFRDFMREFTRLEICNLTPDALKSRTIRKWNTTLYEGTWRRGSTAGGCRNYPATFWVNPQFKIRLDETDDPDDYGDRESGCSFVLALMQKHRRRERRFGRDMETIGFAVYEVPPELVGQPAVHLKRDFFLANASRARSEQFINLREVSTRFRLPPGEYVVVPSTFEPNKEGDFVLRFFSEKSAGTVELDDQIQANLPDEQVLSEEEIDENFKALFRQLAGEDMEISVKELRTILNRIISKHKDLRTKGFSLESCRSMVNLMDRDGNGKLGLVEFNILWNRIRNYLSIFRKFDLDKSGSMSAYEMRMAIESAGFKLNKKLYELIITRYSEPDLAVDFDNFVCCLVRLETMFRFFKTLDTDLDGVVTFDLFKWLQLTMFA
Kind of series: Inhibition of human Calpain 1 using N-Suc-Leu-Leu-Val-Tyr-7-AMC as substrate incubated for 10 mins by FRET-enzymatic assay.

The nature of series [11]: Inhibition of mouse hepatitis virus 3CLpro by FRET-enzymatic assay. Details: species or system Murine hepatitis virus.
For another series, the target named is Dipeptidyl peptidase 4 (Homo sapiens, UniProt P27487). Kind of series: Inhibition of human DPP-4 using Gly-Pro-AMC as substrate incubated for 10 mins by FRET-enzymatic assay.
The target of a further series is Cathepsin D (Homo sapiens, UniProt P07339). Kind of series: Inhibition of human Cathepsin D using MCA-PLGL-Dap(Dnp)-AR-NH2 as substrate incubated for 10 mins by FRET-enzymatic assay.
The next series concerns the target Cathepsin B (Homo sapiens, UniProt P07858). Description: Inhibition of human Cathepsin B using CBZ-Arg-Arg-AMC as substrate incubated for 10 mins by FRET-enzymatic assay.
The target in another series is Prothrombin (Homo sapiens, UniProt P00734). Kind of series: Inhibition of human thrombin using benzoyl-FVR-AMC as substrate incubated for 10 mins by FRET-enzymatic assay.
Series [12] has as its target Replicase polyprotein 1ab (Human coronavirus 229E, UniProt P0C6X1). Description: Inhibition of HCov-229E 3CLpro by FRET-enzymatic assay.
A short description of series [13]: Acute toxicity in mouse assessed as body weight change at 500 mg/kg, po administered twice a day for 5 days. In kind it is organism-based. Conditions: in vivo, 120 h, time 5 day.
Series [14] is described as follows: Acute toxicity in mouse at 500 mg/kg, po administered twice a day for 5 days. In kind it is organism-based. As to conditions: in vivo, 120 h, time 5 day.
A short description of series [15]: Half-life in ICR mouse at 20 mg/kg, po. Format: ADME, organism-based. As to conditions: in vivo.
Another series deals with 3C-like protease (Infectious bronchitis virus, UniProt Q3Y5H1). Kind of series: Inhibition of Infectious bronchitis virus 3CLpro by FRET-enzymatic assay.
Another series deals with T3, Caspase-3 (Homo sapiens, UniProt P42574).
T3 sequence (P42574 whole entry): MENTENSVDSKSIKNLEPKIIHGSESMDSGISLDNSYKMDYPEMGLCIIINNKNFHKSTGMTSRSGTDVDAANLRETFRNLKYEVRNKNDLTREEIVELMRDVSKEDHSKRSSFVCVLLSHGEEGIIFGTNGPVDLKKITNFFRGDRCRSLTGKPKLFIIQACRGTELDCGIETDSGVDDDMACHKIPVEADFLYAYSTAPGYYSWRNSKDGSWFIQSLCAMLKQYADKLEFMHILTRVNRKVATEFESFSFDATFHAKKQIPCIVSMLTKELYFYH
Description: Inhibition of human Caspase-3 activity using Ac-DEVD-pNA as substrate incubated for 5 mins by FRET-enzymatic assay.

Series [16] can be described thus: Inhibition of MERS-CoV 3CLpro by FRET-enzymatic assay. Details: species or system Middle East respiratory syndrome-related coronavirus.
Series [17] in a line: AUC (0 to infinity) in ICR mouse at 20 mg/kg, po. In kind it is ADME, organism-based. As to conditions: in vivo.
The test system of another series is Proteasome. Format: subcellular, Homo sapiens.
In another series the target is Trypsin (Homo sapiens, UniProt P07477+P07478+P35030). Description: Inhibition of human trypsin using CBZ-Arg-Arg-AMC as substrate incubated for 10 mins by FRET-enzymatic assay. In kind it is protein assay.
A short description of series [18]: Cmax in ICR mouse at 20 mg/kg, po. Conditions: in vivo. In kind it is ADME, organism-based.
A short description of series [19]: Observed MRT (0 to infinity) in ICR mouse at 20 mg/kg, po. Format: ADME, organism-based. Conditions: in vivo.
For a further series, the target named is T4, Cathepsin K (Homo sapiens, UniProt P43235).
T4 sequence (P43235 whole entry): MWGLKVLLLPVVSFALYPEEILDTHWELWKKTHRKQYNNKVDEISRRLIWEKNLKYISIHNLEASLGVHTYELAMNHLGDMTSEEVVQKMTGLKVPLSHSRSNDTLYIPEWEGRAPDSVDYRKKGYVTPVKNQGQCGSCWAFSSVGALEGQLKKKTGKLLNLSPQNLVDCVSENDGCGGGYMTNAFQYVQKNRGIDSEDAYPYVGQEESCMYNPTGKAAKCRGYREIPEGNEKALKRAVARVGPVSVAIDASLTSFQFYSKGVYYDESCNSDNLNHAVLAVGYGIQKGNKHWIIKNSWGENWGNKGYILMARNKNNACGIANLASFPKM
Kind of series: Inhibition of human Cathepsin K using Z-Phe-Arg-AMC as substrate incubated for 10 mins by FRET-enzymatic assay.

Series [20] is described as follows: Inhibition of HCov-OC43 3CLpro by FRET-enzymatic assay. Details: species or system Human coronavirus OC43.
Series [21] concerns the target Replicase polyprotein 1ab (Severe acute respiratory syndrome coronavirus 2) (UniProt P0DTD1). Conditions: dose 31.25-1000 nM, time 100.0 sec. This is another data set of the same source.
A short description of series [22]: AUClast in ICR mouse at 20 mg/kg, po. Format: ADME, organism-based. As to conditions: in vivo.
A short description of series [23]: Inhibition of Bat coronavirus WIV-1 3CLpro by FRET-enzymatic assay.

Sequence of Replicase polyprotein 1ab (Human coronavirus 229E, UniProt P0C6X1) (P0C6X1 2966-3267 limits assumed): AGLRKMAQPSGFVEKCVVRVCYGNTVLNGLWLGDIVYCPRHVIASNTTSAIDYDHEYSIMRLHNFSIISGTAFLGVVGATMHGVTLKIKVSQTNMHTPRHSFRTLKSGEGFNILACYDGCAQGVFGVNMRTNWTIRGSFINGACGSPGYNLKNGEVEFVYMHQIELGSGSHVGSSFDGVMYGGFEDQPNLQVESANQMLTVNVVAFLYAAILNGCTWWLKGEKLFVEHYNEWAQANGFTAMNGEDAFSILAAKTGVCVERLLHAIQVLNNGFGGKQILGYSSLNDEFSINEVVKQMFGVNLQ
Sequence of Procathepsin L (P07711 whole entry): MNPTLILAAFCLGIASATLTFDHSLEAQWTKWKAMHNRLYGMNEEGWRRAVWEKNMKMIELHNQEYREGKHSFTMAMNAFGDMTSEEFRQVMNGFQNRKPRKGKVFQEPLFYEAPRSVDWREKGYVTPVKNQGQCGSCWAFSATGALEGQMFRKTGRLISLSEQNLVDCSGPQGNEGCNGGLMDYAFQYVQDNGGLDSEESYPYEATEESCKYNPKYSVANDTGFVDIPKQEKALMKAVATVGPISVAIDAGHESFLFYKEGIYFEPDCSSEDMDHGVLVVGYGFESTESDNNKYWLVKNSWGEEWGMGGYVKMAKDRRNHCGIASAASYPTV
Sequence of Cathepsin D (P07339 65-162 limits assumed): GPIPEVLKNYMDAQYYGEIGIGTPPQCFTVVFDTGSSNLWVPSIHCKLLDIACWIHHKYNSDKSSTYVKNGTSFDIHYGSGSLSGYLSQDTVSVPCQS
Sequence of Cathepsin D (P07339 169-412 limits assumed): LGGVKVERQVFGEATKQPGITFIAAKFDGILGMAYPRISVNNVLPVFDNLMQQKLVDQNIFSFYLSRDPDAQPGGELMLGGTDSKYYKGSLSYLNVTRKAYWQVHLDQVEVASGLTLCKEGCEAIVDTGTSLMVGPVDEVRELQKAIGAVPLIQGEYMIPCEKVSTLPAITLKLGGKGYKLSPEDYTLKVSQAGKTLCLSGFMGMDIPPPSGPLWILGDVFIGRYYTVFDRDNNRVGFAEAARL
Sequence of 3C-like protease (Q3Y5H1 whole entry): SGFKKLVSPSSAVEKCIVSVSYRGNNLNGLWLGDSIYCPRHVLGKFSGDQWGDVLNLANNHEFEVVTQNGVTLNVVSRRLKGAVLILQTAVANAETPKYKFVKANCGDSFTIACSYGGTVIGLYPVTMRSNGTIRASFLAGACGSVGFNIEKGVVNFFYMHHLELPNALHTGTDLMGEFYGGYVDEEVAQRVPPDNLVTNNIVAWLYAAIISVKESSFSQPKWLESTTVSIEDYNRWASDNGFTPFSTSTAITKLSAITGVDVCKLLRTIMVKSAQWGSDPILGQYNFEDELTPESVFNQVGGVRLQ
Sequence of Dipeptidyl peptidase 4 (P27487 whole entry): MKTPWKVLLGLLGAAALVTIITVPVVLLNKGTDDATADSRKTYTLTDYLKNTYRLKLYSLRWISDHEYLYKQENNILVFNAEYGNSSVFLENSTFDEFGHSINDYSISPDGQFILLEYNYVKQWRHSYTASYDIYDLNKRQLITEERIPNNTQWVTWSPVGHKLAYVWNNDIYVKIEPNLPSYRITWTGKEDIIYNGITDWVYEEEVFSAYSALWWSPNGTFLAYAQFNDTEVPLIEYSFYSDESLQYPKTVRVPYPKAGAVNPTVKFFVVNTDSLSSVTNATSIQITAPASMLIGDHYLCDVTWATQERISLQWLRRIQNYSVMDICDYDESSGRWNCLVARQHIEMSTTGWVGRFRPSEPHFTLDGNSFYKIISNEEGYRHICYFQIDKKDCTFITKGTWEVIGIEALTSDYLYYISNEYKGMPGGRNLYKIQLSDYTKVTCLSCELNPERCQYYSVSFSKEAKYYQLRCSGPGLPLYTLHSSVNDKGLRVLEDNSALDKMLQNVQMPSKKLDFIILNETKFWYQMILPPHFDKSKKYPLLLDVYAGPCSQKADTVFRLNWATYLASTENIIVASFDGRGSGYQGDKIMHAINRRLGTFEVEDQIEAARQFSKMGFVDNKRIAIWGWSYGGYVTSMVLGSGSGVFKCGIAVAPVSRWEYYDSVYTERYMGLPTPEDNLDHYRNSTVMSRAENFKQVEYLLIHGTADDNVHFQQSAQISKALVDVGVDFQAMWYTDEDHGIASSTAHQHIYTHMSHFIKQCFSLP

In the case of `O=C(c1cc(=O)[nH]c2ccccc12)N1CCN(c2ccc(Cl)c(Cl)c2)CC1CN1CCOCC1` (configuration not stated), in series [1], the K was 0.028 s⁻¹. Half-maximal cytotoxicity in series [2] (CC50 at 24 h) was put at 381000 nM. This compound also had a dissociation constant Kd in [3] of 117 nM. The IC50 in series [4] and in series [5] was 150 nM throughout.
In the case of `CN1CCN(C(=O)c2cc(Br)cc([N+](=O)[O-])c2N[C@@H]2CCCC[C@@H]2NC(=O)c2cc(=O)[nH]c3c(F)cccc23)CC1`, the IC50 against Procathepsin L is > 100000 nM; in [7] it was 402 nM; in series [9] it was > 10000 nM; in series [10], > 100000 nM; in [11] it was > 10000 nM; against Dipeptidyl peptidase 4, > 100000 nM. The IC50 was > 100000 nM on Cathepsin D; > 100000 nM against Cathepsin B; > 100000 nM against Prothrombin; 2560 nM in series [12]; > 10000 nM at 3C-like protease; > 100000 nM against Caspase-3. For the same compound, the IC50 in series [16] was 1680 nM; in the series on Proteasome, > 100000 nM; on Trypsin it was > 100000 nM; at Cathepsin K it was > 100000 nM; in series [5] it was 21.1 nM; in [20], 940 nM. The same compound showed an IC50 in series [23] of 86 nM. Further, the Tmax in series [6] was 3 min. Also, the Activity result in series [8], in series [13] and in series [14] was “Non-Toxic” in each case. The K is 0.007 s⁻¹ in series [1] and 3.8 10^5/M/s in [21]. The compound further had a half-life in [15] of 1.21 h. The CC50 at 24 h in series [2] is > 200000 nM. For the same compound, the AUC(0-inf) in series [17] came out at 77.7 ng·h/mL. The compound further gave a Kd in series [3] of 18.4 nM. In series [18], the Cmax came to 76.3 ng/mL. The compound also registered an MRT inf in series [19] of 1.44 h. The AUC(0-t) in [22] came to 70.6 ng·h/mL.
